# Test results published in patent US10052320B2, “Substituted quinoxalines as FGFR kinase inhibitors” (ASTEX THERAPEUTICS LIMITED, priority 2011, dated 2018).
# Where two headings read alike, the source gives them in different places.
# Assays:
# FGFR2 (h) = FGFR2 (h) (Homo sapiens, UniProt P21802); assay: FGFR2 (enzymatic assay), TR-FRET; format: biochemical; conditions: read-out: FGFR 2 pIC50 (converted)
# Procedure: In a final reaction volume of 30 μL, FGFR2 (h) (150 ng/ml) was incubated with 50 mM HEPES pH 7.5, 6 mM MnCl2, 1 mM DTT, 0.1 mM Na3VO4, 0.01% Triton-X-100, 500 nM Btn-Flt3 and 0.4 μM ATP in the presence of compound (1% DMSO final). […] Time-Resolved Fluorescence Resonance Energy Transfer (TR-FRET) signal (ex340 nm. Em 620 nm, em 655 nm) was measured afterwards and results are expressed in (Relative Fluorescence Units).
# [1] = target: Ba/F3-KDR-transfected cells (Homo sapiens, UniProt P35968); assay: Ba/F3-KDR (minus IL3) cellular proliferation assay, Alamar Blue; format: cell-based; conditions: minus IL3
# Ba/F3-KDR-transfected cells, sequence (P35968 whole entry, change not shown): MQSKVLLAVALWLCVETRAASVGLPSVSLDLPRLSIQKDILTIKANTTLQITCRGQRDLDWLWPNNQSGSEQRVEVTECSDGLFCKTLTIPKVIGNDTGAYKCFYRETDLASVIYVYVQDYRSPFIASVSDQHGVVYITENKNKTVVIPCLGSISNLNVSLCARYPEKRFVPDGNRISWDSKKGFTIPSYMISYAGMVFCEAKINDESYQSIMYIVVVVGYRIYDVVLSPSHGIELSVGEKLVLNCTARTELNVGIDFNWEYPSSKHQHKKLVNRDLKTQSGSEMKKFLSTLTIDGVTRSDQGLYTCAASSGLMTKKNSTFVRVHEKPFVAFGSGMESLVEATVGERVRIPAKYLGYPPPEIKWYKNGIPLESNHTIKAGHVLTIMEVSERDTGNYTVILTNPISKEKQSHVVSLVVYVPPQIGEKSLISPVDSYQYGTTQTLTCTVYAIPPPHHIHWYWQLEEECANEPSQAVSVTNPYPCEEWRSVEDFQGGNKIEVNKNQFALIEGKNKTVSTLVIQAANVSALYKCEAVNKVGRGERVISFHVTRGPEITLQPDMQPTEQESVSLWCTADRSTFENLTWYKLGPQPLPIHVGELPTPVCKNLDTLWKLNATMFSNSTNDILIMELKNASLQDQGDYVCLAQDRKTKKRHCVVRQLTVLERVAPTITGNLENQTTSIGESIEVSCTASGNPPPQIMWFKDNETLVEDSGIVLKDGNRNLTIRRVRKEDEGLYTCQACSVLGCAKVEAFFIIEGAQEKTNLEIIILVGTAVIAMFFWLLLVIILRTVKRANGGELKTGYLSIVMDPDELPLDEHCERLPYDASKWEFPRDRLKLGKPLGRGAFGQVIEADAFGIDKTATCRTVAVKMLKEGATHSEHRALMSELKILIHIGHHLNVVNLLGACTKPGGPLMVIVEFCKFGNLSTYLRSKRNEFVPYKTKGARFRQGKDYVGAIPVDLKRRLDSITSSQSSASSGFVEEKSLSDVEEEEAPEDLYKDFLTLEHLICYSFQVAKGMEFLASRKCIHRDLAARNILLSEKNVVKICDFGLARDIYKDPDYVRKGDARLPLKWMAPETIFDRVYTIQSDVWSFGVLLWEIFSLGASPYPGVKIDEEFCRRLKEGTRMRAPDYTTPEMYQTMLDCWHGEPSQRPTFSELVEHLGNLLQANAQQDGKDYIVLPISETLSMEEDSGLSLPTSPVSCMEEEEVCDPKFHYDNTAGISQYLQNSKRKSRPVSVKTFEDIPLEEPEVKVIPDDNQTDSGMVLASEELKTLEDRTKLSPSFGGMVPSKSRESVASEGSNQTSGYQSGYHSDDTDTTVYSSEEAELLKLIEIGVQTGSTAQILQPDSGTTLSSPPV
# In short: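 Ba/F3-KDR cells in phenol red free RPMI-1640 with 10% FBS were exposed to compound for 24 h at 37 °C, 5% CO2. Alamar Blue (resazurin) was then added for 4 h and fluorescence read at ex 540/em 590 nm. The counterscreen ran identically with 10 ng/ml murine IL3.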
# FGFR3 (h) = FGFR3 (h) (Homo sapiens, UniProt P22607); assay: FGFR3 (enzymatic assay), TR-FRET; format: biochemical; conditions: read-out: FGFR 3 pIC50 (converted)
# FGFR3 (h), sequence (P22607 23-806): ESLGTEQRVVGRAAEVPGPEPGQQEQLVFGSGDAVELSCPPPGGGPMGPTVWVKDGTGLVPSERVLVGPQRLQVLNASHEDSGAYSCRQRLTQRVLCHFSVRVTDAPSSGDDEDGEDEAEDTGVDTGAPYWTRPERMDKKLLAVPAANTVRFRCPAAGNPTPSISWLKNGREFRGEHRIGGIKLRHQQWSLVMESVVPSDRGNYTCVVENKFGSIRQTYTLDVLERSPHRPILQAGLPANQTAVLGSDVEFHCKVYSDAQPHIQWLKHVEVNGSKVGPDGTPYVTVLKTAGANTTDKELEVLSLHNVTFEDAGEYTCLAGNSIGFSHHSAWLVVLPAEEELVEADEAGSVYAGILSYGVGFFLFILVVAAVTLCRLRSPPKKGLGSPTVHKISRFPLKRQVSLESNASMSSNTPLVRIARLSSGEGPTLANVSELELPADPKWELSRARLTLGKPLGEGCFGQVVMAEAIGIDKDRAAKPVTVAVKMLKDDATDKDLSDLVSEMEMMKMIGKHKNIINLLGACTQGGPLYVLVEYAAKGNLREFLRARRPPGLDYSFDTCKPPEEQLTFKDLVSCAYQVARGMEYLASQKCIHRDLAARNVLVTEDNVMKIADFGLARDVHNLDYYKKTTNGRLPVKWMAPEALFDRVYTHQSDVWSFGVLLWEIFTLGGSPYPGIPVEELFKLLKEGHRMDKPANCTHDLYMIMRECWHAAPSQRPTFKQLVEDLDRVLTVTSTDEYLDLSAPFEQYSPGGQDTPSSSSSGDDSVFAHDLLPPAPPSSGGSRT
# Procedure: (§1) In a final reaction volume of 30 μL, FGFR3 (h) (40 ng/ml) was incubated with 50 mM HEPES pH 7.5, 6 mM MnCl2, 1 mM DTT, 0.1 mM Na3VO4, 0.01% Triton-X-100, 500 nM Btn-Flt3 and 25 μM ATP in the presence of compound (1% DMSO final). […] Time-Resolved Fluorescence Resonance Energy Transfer (TR-FRET) signal (ex340 nm. Em 620 nm, em 655 nm) was measured afterwards and results are expressed in RFU (Relative Fluorescence Units).
# [2] = system: Ba/F3-FGFR1-transfected cells in the presence of 10 ng/ml murine IL3; assay: Ba/F3-FGFR1 (plus IL3) cellular proliferation counterscreen, Alamar Blue; format: cell-based; conditions: Mus musculus
# In short: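 Cells (20000 per well in 384-well format or 10000 per well in 96-well format) in phenol red-free RPMI-1640 with 10% FBS were exposed to compound in DMSO for 24 h at 37 °C, 5% CO2. Resazurin-based Alamar Blue was then added for 4 h, and fluorescence was read at ex 540/em 590 nm.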
# KDR (h) (VEGFR2) = KDR (h) (VEGFR2) (Homo sapiens, UniProt P35968); assay: KDR (VEGFR2) (enzymatic assay), TR-FRET; format: biochemical
# KDR (h) (VEGFR2), sequence (P35968 20-1356): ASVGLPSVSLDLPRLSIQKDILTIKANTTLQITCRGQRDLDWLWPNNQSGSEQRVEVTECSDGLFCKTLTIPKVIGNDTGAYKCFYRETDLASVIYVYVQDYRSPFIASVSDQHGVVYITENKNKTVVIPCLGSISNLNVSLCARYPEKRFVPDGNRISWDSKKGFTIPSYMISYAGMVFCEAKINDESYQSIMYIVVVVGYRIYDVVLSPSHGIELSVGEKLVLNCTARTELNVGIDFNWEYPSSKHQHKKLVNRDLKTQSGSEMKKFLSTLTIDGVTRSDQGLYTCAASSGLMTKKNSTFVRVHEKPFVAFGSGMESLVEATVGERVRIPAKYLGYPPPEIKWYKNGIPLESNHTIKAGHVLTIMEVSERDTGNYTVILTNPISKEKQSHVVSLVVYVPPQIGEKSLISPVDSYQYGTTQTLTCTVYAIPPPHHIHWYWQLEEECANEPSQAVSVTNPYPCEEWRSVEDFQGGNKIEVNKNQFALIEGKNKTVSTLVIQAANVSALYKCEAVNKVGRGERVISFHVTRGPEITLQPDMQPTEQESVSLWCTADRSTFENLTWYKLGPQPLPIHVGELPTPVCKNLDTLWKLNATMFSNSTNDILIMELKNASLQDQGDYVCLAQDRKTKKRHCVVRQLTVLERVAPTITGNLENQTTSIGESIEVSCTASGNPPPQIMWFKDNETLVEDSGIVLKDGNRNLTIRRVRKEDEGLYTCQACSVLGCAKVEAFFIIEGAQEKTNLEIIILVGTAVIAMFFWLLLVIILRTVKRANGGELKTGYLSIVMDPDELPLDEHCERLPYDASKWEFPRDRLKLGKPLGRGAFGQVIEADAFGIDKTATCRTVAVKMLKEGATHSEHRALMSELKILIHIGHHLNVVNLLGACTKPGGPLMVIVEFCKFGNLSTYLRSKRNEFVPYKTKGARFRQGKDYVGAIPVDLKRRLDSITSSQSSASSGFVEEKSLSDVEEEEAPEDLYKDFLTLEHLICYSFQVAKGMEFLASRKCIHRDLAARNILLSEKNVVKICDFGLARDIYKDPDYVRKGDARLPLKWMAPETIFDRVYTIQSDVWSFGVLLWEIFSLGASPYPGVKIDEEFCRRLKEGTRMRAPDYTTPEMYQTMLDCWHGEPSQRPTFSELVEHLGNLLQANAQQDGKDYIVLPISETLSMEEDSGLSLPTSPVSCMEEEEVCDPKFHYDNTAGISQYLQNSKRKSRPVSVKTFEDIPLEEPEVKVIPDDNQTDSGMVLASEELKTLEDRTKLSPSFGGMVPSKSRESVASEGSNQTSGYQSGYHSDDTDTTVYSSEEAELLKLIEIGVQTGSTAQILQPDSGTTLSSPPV
# In short: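 Enzyme at 150 ng/ml was incubated 120 min at room temperature with 500 nM Btn-Flt3 peptide and 3 μM ATP in 50 mM HEPES pH 7.5, 6 mM MnCl2, 1 mM DTT, 0.1 mM Na3VO4, 0.01% Triton-X-100, 1% DMSO final. EDTA stop with Eu-anti-P-Tyr/SA-XL-665, 60 min; TR-FRET read in RFU.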
# FGFR4 (h) = FGFR4 (h) (Homo sapiens, UniProt P22455); assay: FGFR4 (enzymatic assay), TR-FRET; format: biochemical; conditions: read-out: FGFR 4 pIC50 (converted)
# FGFR4 (h), sequence (P22455 22-802): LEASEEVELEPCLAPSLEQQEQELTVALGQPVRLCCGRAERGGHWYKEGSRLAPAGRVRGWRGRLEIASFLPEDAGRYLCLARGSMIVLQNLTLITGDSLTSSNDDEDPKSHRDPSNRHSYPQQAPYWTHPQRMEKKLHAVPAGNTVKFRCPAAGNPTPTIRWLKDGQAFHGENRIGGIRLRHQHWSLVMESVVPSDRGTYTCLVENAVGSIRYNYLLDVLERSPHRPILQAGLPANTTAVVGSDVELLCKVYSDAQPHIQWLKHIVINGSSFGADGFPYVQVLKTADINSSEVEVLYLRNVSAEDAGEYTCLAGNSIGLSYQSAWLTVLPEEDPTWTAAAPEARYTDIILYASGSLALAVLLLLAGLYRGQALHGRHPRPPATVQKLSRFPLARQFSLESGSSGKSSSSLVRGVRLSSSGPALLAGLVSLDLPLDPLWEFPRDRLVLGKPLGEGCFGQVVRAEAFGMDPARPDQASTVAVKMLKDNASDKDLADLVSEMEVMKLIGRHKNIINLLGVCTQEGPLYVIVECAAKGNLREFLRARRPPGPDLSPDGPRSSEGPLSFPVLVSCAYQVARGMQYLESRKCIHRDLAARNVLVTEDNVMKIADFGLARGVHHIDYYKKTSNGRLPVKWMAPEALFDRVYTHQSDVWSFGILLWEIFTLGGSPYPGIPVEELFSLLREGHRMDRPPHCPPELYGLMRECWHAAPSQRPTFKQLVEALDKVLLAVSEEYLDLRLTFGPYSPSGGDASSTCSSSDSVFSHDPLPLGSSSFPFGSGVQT
# Procedure: as §1, with “FGFR4” for “FGFR3”, “(60” for “(40”, “5” for “25”
# [3] = plus IL3, 96 well, read-out: BAF3-FGFR 1 (PLUS IL3) 96 well pIC50 (converted)
# [4] = plus IL3, 384 well, read-out: BAF3-FGFR 1 (PLUS IL3) 384 well pIC50 (converted)
# FGFR2 (h), sequence (P21802 22-821): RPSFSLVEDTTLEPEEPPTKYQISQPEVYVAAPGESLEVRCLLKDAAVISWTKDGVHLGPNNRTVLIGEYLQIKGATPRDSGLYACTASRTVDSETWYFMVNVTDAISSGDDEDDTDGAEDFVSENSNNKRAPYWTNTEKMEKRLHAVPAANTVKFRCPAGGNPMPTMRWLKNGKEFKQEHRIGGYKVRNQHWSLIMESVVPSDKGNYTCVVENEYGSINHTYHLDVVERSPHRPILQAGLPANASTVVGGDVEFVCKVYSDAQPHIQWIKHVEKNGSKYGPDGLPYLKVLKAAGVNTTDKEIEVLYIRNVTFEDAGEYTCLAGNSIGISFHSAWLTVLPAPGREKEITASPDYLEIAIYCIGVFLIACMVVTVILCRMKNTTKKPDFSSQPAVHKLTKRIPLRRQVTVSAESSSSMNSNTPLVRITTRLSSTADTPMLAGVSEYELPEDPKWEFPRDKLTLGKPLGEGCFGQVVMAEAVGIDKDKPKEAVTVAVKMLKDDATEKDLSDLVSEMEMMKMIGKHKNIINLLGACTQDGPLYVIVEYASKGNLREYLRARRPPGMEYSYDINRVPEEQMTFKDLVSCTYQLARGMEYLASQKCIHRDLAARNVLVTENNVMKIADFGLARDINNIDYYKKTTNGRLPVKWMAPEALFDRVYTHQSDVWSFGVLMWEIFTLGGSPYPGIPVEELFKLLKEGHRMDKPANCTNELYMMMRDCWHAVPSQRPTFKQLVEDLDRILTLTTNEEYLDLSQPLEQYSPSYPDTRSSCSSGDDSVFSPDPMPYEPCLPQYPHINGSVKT
Compound,IC50 (FGFR2 (h)) [nM],BAF3-KDR (MIN IL3) 96 well pIC50 [1],BAF3-KDR (MIN IL3) 384 well pIC50 [1],IC50 (FGFR3 (h)) [nM],IC50 (KDR (h) (VEGFR2)) [nM],IC50 (FGFR4 (h)) [nM],"IC50 [2, 3] [nM]","IC50 [2, 4] [nM]"
CNC(=O)OCCN(c1cc(OC)cc(OC)c1)c1ccc2ncc(-c3ccc(NC(=O)OC(C)(C)C)nc3)nc2c1 [Compound 80],912,–,<5,~347,> 1000,> 1000,–,> 10000
COc1cc(OC)cc(N(CC2CC2)c2ccc3ncc(-c4ocnc4C)nc3c2)c1 [Compound 104],~417,–,<5,117,> 1000,575,–,> 10000
COc1cc(OC)cc(N(CC2CO2)c2ccc3ncc(-c4ccc(N)nc4)nc3c2)c1 (stereo not shown) [Compound 110],17.4,–,5.45,21.4,275,145,–,> 10000
COc1cc(OC)cc(N(CCO)c2ccc3ncc(-c4ccc(OC)nc4)nc3c2)c1 [Compound 111],23.4,–,<5,9.77,741,70.8,–,> 10000
COc1cc(OC)cc(N(CCCO)c2ccc3ncc(-c4cccnc4)nc3c2)c1 [Compound 112],20.9,–,<5,7.41,468,58.9,–,> 10000
COc1cc(OC)cc(N(CCCO)c2ccc3ncc(-c4ccc(F)nc4)nc3c2)c1 [Compound 117],22.4,–,<5,11.7,912,87.1,–,> 10000
COc1cc(OC)cc(N(CCO)c2ccc3ncc(-c4ccnc(C(=O)NCCCN)c4)nc3c2)c1 [Compound 123],25.7,–,<5,14.5,575,245,–,> 10000
COc1cc(OC)cc(N(CCCNCC(F)(F)F)c2ccc3ncc(-c4ccc(N(C)C(=O)OC(C)(C)C)nc4)nc3c2)c1 [Compound 127],363,–,<5,331,> 1000,912,–,> 10000
COc1cc(OC)cc(N(CCCO)c2ccc3ncc(-c4ccnc(NC(=O)OC(C)(C)C)c4)nc3c2)c1 [Compound 128],135,–,<5,33.9,> 1000,> 1000,–,> 10000

# Now from value to molecule, other results behind:
IC50 (FGFR2 (h)) [nM],BAF3-KDR (MIN IL3) 96 well pIC50 [1],BAF3-KDR (MIN IL3) 384 well pIC50 [1],IC50 (FGFR3 (h)) [nM],IC50 (KDR (h) (VEGFR2)) [nM],IC50 (FGFR4 (h)) [nM],Compound,"IC50 [2, 3] [nM]","IC50 [2, 4] [nM]"
166,<5,<5,61.7,> 1000,251,COc1cc(OC)cc(N(CC2CC2)c2ccc3ncc(-c4cn[nH]n4)nc3c2)c1 [Compound 69],> 10000,> 10000
11.5,–,<5,4.37,309,26.9,COc1cc(OC)cc(N(CC(O)CO)c2ccc3ncc(-c4ccc(N)nc4)nc3c2)c1 (stereo not shown) [Compound 74],–,> 10000
> 1000,<5,<5,> 1000,> 1000,> 1000,COc1cc(OC)cc(N(CC2CC2)c2ccc3ncc(-c4nnnn4C)nc3c2)c1 [Compound 83],> 10000,> 10000
10.7,–,5.19,3.24,135,17.8,CNc1ccc(-c2cnc3ccc(N(CCCO)c4cc(OC)cc(OC)c4)cc3n2)cn1 [Compound 116],–,> 10000
15.1,–,<5,3.98,263,20,COc1cc(OC)cc(N(CCO)c2ccc3ncc(-c4ccccc4)nc3c2)c1 [Compound 120],–,> 10000
46.8,–,<5,37.2,> 1000,316,CNC(=O)c1cc(-c2cnc3ccc(N(CCCNCC(F)(F)F)c4cc(OC)cc(OC)c4)cc3n2)ccn1 [Compound 122],–,> 10000
